Test results from patent publication US9187492B2, “Pyripyropene derivative having ACAT2 inhibiting activity and stable to metabolizing enzymes” (School Juridical Person Kitasato Institute, priority 2010, dated 2015).

Legend:
[1] = female, Sprague-Dawley (SD), rat, microsomes, 6 μg/mL, pH 7.4
in vitro = details: female, Sprague-Dawley (SD), rat, microsomes, pH 7.4, Half-life

Half-life [1]: <1 h
half-life at 6 μg/mL (in vitro): 1 h
Structure (SMILES): CC(=O)OC[C@@]1(C)[C@@H]2C[C@H](OC(C)=O)[C@@]3(C)Oc4cc(-c5cccnc5)oc(=O)c4[C@H](O)[C@@H]3[C@@]2(C)CC[C@@H]1OC(C)=O [PPA, pyripyropene A]
